Experimental data taken from US20040097566A1, “2-Substituted thiazolidinone and oxazolidinone derivatives for the inhibition of phosphatases and the treatment of cancer” (priority 2001, published 2004).

Structure (SMILES) | melting point [°C]
C[C@H]1CN(C2=NC(=O)/C(=C/c3cccc(-c4cc(F)c(O)c(C56CC7CC(CC(C7)C5)C6)c4)c3)S2)C[C@H](C)O1 (relative stereo) [Compound 50, 5-[3-(3-Adamantan-1-yl-4-hydroxy-5-fluoro-phenyl)benzylidene]-2-(trans-2,6-dimethylmorpholin-4-yl)-thiazol-4-one] | 262 to 264
O=C1N=C(N2CCOCC2)S/C1=C\c1cccc(-c2ccc(O)c(C34CC5CC(CC(C5)C3)C4)c2)c1 [Compound 2, 5-[3-(3-Adamantan-1-yl-4-hydroxy-phenyl)benzylidene]-2-morpholin-4-yl-thiazol-4-one] | 325 to 328
O=C1N=C(N2CCCCC2)S/C1=C\c1ccc(-c2ccc(O)c(C34CC5CC(CC(C5)C3)C4)c2)cc1 [Compound 4, 5-[4-(3-Adamantan-1-yl-4-hydroxy-phenyl)benzylidene]-2-piperidin-1yl-thiazol-4-one] | 325 to 328
CN1CCN(C2=NC(=O)/C(=C/c3cccc(-c4ccc(O)c(C56CC7CC(CC(C7)C5)C6)c4)c3)S2)CC1 [Compound 8, 5-[3-(3-Adamantan-1-yl-4-hydroxy-phenyl)benzylidene]-2-(4-methyl-piperazin-1-yl)-thiazol-4-one] | 291 to 294
CN1CCN(C2=NC(=O)/C(=C/c3cccc(-c4cc(F)c(O)c(C56CC7CC(CC(C7)C5)C6)c4)c3)S2)CC1 [Compound 9, 5-[3-(3-Adamantan-1-yl-4-hydroxy-5-fluoro-phenyl)benzylidene]-2-(4-methyl-piperazin-1-yl)-thiazol-4-one] | 226 to 228
CCN(CC)C1=NC(=O)/C(=C/c2cccc(-c3ccc(O)c(C45CC6CC(CC(C6)C4)C5)c3)c2)S1 [Compound 10, 5-[3-(3-Adamantan-1-yl-4-hydroxy-phenyl)benzylidene]-2-diethylamino-thiazol-4-one] | 275 to 277
O=C1N=C(N2CCCC2)S/C1=C\c1cccc(-c2cc(F)c(O)c(C34CC5CC(CC(C5)C3)C4)c2)c1 [Compound 13, 5-[3-(3-Adamantan-1-yl-4-hydroxy-5-fluoro-phenyl)benzylidene]-2-pyrrolidine-1-yl-thiazol-4-one-thiazol-4-one] | 309 to 311
O=C1N=C(N2CCCCCC2)S/C1=C\c1cccc(-c2ccc(O)c(C34CC5CC(CC(C5)C3)C4)c2)c1 [Compound 14, 5-[3-(3-Adamantan-1-yl-4-hydroxy-phenyl)benzylidene]-2-azepan-1-yl-thiazol-4-one] | 321 to 324
O=C1N=C(N2CCCCCCC2)S/C1=C\c1cccc(-c2ccc(O)c(C34CC5CC(CC(C5)C3)C4)c2)c1 [Compound 16, 5-[3-(3-Adamantan-1-yl-4-hydroxy-phenyl)benzylidene]-2-azocan-1-yl-thiazol-4-one] | 284 to 286
O=C1N=C(N2CCN(c3cccc(C(F)(F)F)c3)CC2)S/C1=C\c1cccc(-c2cc(F)c(O)c(C34CC5CC(CC(C5)C3)C4)c2)c1 [Compound 19, 5-[3-(3-Adamantan-1-yl-4-hydroxy-5-fluoro-phenyl)benzylidene]-2-[4-(3-trifluoromethyl-phenyl)-piperazon-1-yl]-thiazol-4-one] | 291 to 293
CN(C)CCN(Cc1ccccc1)C1=NC(=O)/C(=C/c2cccc(-c3cc(F)c(O)c(C45CC6CC(CC(C6)C4)C5)c3)c2)S1 [Compound 20, 5-[3-(3-Adamantan-1-yl-4-hydroxy-5-fluoro-phenyl)benzylidene]-2[benzyl-(2-dimethylamino-ethyl)-amino]-thiazol-4-one] | 242 to 246
O=C1N=C(NCCN2CCOCC2)S/C1=C\c1cccc(-c2cc(F)c(O)c(C34CC5CC(CC(C5)C3)C4)c2)c1 [Compound 24, 5-[3-(3-Adamantan-1-yl-4-hydroxy-5-fluoro-phenyl)benzylidene]-2-(2-morpholino-1-yl-ethylamino)-thiazol-4-one] | 180 to 193
O=C1N=C(N2CCCCC2)S/C1=C\c1cccc(-c2ccc(O)c(C(=O)c3ccccc3)c2)c1 [Compound 26, 5-[3-(3-Benzoyl-4-hydroxy-phenyl)benzylidene]-2-piperidin-1-yl-thiazol-4-one] | 135 to 138
O=C1N=C(N2CCNCC2)S/C1=C\c1cccc(-c2cc(F)c(O)c(C34CC5CC(CC(C5)C3)C4)c2)c1 [Compound 31, 5-[3-(3-Adamantan-1-yl-4-hydroxy-5-fluoro-phenyl)benzylidene]-2piperazin-1-yl-thiazol-4-one] | 230 to 233
Cc1cc(O)c(C23CC4CC(CC(C4)C2)C3)cc1-c1cccc(/C=C2\SC(N3CCOCC3)=NC2=O)c1 [Compound 33, 5-[3-(3-Adamantan-1-yl-4-hydroxy-6-methyl-phenyl)benzylidene]-2-morpholin-4-yl-thiazol-4-one] | 327 to 329
O=C1N=C(N2CCOCC2)S/C1=C\c1ccc(-c2ccnc(C34CC5CC(CC(C5)C3)C4)n2)cc1 [Compound 41, 5-[4-(2-Adamantan-1-yl-pyrimidin-4-yl)-benzylidene]-2-morpholin-4-yl-thiazol-4-one] | 283 to 285

Structure (SMILES) | melting point [°C]
CSC1=NC(=O)/C(=C/c2cccc(-c3cc(F)c(O)c(C45CC6CC(CC(C6)C4)C5)c3)c2)S1 [Compound 51, 5-[3-(3-Adamantan-1-yl-4-hydroxy-5-fluorophenyl)benzylidene]-2-methylsulfanyl-thiazol-4-one] | 270 to 271
O=C1N=C(NO)S/C1=C\c1cccc(-c2cc(F)c(O)c(C34CC5CC(CC(C5)C3)C4)c2)c1 [Compound 52, 5-[3-(3-Adamantan-1-yl-4-hydroxy-5-fluorophenyl)benzylidene]-2-hydroxyamino-thiazol-4-one] | 238 to 240
O=C1N=C(N2CCC[C@H]2C(=O)O)S/C1=C\c1cccc(-c2cc(F)c(O)c(C34CC5CC(CC(C5)C3)C4)c2)c1 [Compound 53, 5-[3-(3-Adamantan-1-yl-4-hydroxy-5-fluoro-phenyl)benzylidene]-2-(2-(S)-carboxy-1-yl)-thiazol-4-one] | 195 to 198
O=C1N=C(N2CCCC2)S/C1=C\c1ccc(-c2cc(F)c(O)c(C34CC5CC(CC(C5)C3)C4)c2)s1 [Compound 59, 5-[5-(3-Adamantan-1-yl-4-hydroxy-5-fluoro-phenyl)-thiophene-2-yl-methylene]-2-pyrrolidine-1-yl-thiazol-4-one] | 312 to 315
CN(C)c1ccc(/C=C2\SC(N3CCCC3)=NC2=O)cc1-c1cc(F)c(O)c(C23CC4CC(CC(C4)C2)C3)c1 [Compound 61, 5-[3-(3-Adamantan-1-yl-4-hydroxy-5-fluoro-phenyl)-4-dimethylamino-benzylidene]-2-pyrrolidin-1-yl-thiazol-4-one] | 294 to 298
O=C1N=C(N2CCOCC2)S/C1=C\c1ccc(OC(F)(F)F)c(-c2cc(F)c(O)c(C34CC5CC(CC(C5)C3)C4)c2)c1 [Compound 62, 5-[3-(3-Adamantan-1-yl-4-hydroxy-5-fluoro-phenyl)-4-trifluoromethoxy-benzylidene]-2-morpholin-4-yl-thiazol-4-one] | 238
O=C1N=C(N2CCOCC2)S/C1=C\c1cccc(-c2ccc(O)c(F)c2)c1 [Compound 64, 5-[3-(3-Fluoro-4-hydroxy-phenyl)-benzylidene]-2-morpholin-4-yl-thiazol-4-one] | 233 to 235
O=C1N=C(NN2CCCC2)S/C1=C\c1cccc(-c2cc(F)c(O)c(C34CC5CC(CC(C5)C3)C4)c2)c1 [Compound 69, 5-[3-(3-Adamantan-1-yl-4-hydroxy-5-fluoro-phenyl)benzylidene]-2-(pyrrolidin-1-ylamino)-thiazol-4-one] | 293 to 296
N=C(N)NC1=NC(=O)/C(=C/c2cccc(-c3cc(F)c(O)c(C45CC6CC(CC(C6)C4)C5)c3)c2)S1 [Compound 70, 5-[3-(3-Adamantan-1-yl-4-hydroxy-5-fluorophenyl)benzylidene]-2-(N-guanidinyl)-thiazol-4-one] | 288 to 290
CONC1=NC(=O)/C(=C/c2cccc(-c3cc(F)c(O)c(C45CC6CC(CC(C6)C4)C5)c3)c2)S1 [Compound 71, 5-[3-(3-Adamantan-1-yl-4-hydroxy-5-fluorophenyl)benzylidene]-2-methoxyamino-thiazol-4-one] | 286 to 288
NC(=O)NNC1=NC(=O)/C(=C/c2cccc(-c3cc(F)c(O)c(C45CC6CC(CC(C6)C4)C5)c3)c2)S1 [Compound 72, 5-[3-(3-Adamantan-1-yl-4-hydroxy-5-fluorophenyl)benzylidene]-2-semicarbazid-1-yl-thiazol-4-one] | 234 to 236
O=C1N=C(NN2CCOCC2)S/C1=C\c1cccc(-c2cc(F)c(O)c(C34CC5CC(CC(C5)C3)C4)c2)c1 [Compound 73, 5-[3-(3-Adamantan-1-yl-4-hydroxy-5-fluorophenyl)benzylidene]-2-(morpholin-4-yl-amino)-thiazol-4-one] | 304 to 309
NNC1=NC(=O)/C(=C/c2cccc(-c3cc(F)c(O)c(C45CC6CC(CC(C6)C4)C5)c3)c2)S1 [Compound 74, 5-[3-(3-Adamantan-1-yl-4-hydroxy-5-fluorophenyl)benzylidene]-2-hydrazino-thiazol-4-one] | 303 to 308
O=C1N=C(N2CCC[C@@H]2C(=O)O)S/C1=C\c1cccc(-c2cc(F)c(O)c(C34CC5CC(CC(C5)C3)C4)c2)c1 [Compound 76, 5-[3-(3-Adamantan-1-yl-4-hydroxy-5-fluoro-phenyl)benzylidene]-2-(2-(R)-carboxy-1-yl)-thiazol-4-one] | 164 to 168
CC1(C)COc2ccc(-c3cncc(/C=C4\SC(N5CCOCC5)=NC4=O)c3)cc21 [Compound 82, 5-[5-(3,3-Dimethyl-2,3-dihydro-benzofuran-5-yl)-pyridin-3-ylmethylene]-2-morpholin-4-yl-thiazol-4-one] | 230 to 233
COc1ccc(-c2ccc(O)c(C34CC5CC(CC(C5)C3)C4)c2)cc1/C=C1\SC(N2CCOCC2)=NC1=O [Compound 86, 5-[3-(3-Adamantan-1-yl-4-hydroxy-phenyl)-6-methoxy-benzylidene]-2-morpholin-4-yl-thiazol-4-one] | 355 to 360
